Source: patent US6495594B2, “Biologically active analogs of discodermolide” (Harbor Branch Oceanographic Institution, Inc., priority 2000, dated 2002)
Entries after “also recorded” stand apart in the source; their conditions may differ.

Columns and labels:
[1] = system: P388 murine leukemia cell lines; assay: In vitro proliferation of P388 cells (MTT); type: cell-based
Experimental: (§1) Discodermolide and discodermolide analogs were analyzed as to their effects on proliferation of A549 human adenocarcinoma and P388 murine leukemia cell lines. P388 cells were obtained from Dr. R. Camalier, National Cancer Institute, Bethesda, MD, and A549 cells were obtained from American Type Culture Collection, Rockville, MD. All cell lines were maintained in tissue culture medium (TCM; Roswell Park Memorial Institute RPMI 1640 supplemented with 100 U/mL penicillin, […], 60 […], 18 mM HEPES, 0.05 mg/mL gentamicin (Life Technologies, Gaithersburg, MD) and 10% fetal bovine serum) and cultured in plastic tissue culture flasks at 37° C. in humidified air containing 5% CO2. Stock cultures of P388 cells were subcultured 1:20 in fresh TCM every 2 to 3 days. Stock cultures of A549 cells were subcultured 1:10 every 3 to 4 days. To assess the antiproliferative effects of agents against the cells, 200 μL cultures (96-well tissue culture plates, Nunc, Denmark) were established at 1 ×10^5 cells/mL in TCM or TCM containing the test agent at 0.03-5.0 μg/mL. After 48-h exposures, P388 cells were enumerated using 3-[4,5-dimethylthiazol-2-yl]-2,5-diphenyltetrazolium bromide (MTT) as described in the literature (M. C. Alley, et al., Cancer Res. 48:589, 1988). A549 cells were enumerated in the same manner after 72 hours exposure. The results were expressed as percent inhibition compared to the negative (no drug) control. Positive drug controls of varying dilutions of 5-fluorouracil and adriamycin (Sigma Chemical Co., St Louis, MO) were included to monitor drug sensitivity of the cell line.
(§2) To quantitate the effects on cell proliferation and resulting IC50 values, 75 μL of warm growth media containing 5 mg/mL MTT is added to each well, cultures returned to the incubator, and left undisturbed for 3 hours. To spectrophotometrically quantitate formation of reduced formazan, plates are centrifuged (500×g, 10 minutes), culture fluids removed by aspiration, and 200 μL of acidified isopropanol (2 mL concentrated HCl /liter isopropanol) added per well. The absorbance of the resulting solutions is measured in a plate reader (TECAN Spectra SLT; TECAN U.S., Research Triangle Park, N.C.) at 570 nm and a 650 nm reference filter. The absorbance of test wells is divided by the absorbance of drug-free wells, and the concentration of agent that results in 50% of the absorbance of untreated cultures (IC50) is determined by linear regression of logit-transformed data (D. J. Finney, Statistical Method in Biological Assay, third ed., pp. 316-348, Charles Griffin Co., London, 1978). A linear relationship between tumor cell number and formazan production has been routinely observed over the range of cell densities observed in these experiments. The two standard drug controls (indicated above) are included in each assay as a check to monitor the drug sensitivity of each of the cell lines and IC50 values are determined for each drug-cell combination.

[2] = system: A549 human adenocarcinoma; assay: In vitro proliferation of A549 cells (MTT); type: cell-based
Experimental: as §1, §2

[3] = system: A549 human adenocarcinoma tumor cells; assay: Microtubule bundling patterns in tumor cells by immunofluorescence; type: cell-based; design: key to Microtubule bundling in A549 cells: −: no effect; +/−: minimal or questionable effect; +: weak effect; ++: strong effect; +++: very strong effect equivalent to discodermolide; details: for Microtubule bundling in A549 cells: subjective rating versus discodermolide
Experimental: Discodermolide and discodermolide analogs were evaluated as to their effects on the morphology of the microtubule network of cells using mouse anti-alpha-tubulin monoclonal antibody.
On day one, 7×10^4 adherent A549 human adenocarcinoma tumor cells were cultured in TCM overnight at 37° C. in 5% CO2 on 22 mm^2 cover slips in 6-well microtiter plates. On day two, TCM was removed and replaced with 10-1000 nM discodermolide or analog in TCM or TCM without drug (control) and incubated overnight at 37° C. in 5% CO2. On day three, TCM was removed and cells attached to cover slips were fixed with a 3.7% formaldehyde solution in Dulbecco's PBS for 10 minutes at room temperature. Cells were permeabilized with a 2% Triton X-100 solution, 2 mL per well, for 5 minutes at room temperature and washed twice in Dulbecco's PBS prior to staining.
To each well containing cells attached to cover slips a 2 mL volume of mouse anti- alpha-tubulin monoclonal antibody (Cat# T-5168, Sigma Chemical Co., St. Louis, Mo.) diluted 1:1000 in Dulbecco's phosphate buffered saline (D-PBS) was added and the cells incubated at room temperature for 45 minutes. Cover slips were rinsed once with D-PBS. A 2 mL volume of goat-anti-mouse-IgG-FITC conjugated antibody (Cat# T-5262, Sigma Chemical Co., St. Louis, Mo.) diluted 1:1000 in D-PBS was added and the cells incubated at room temperature for 45 minutes. Cover slips were rinsed once in D-PBS and DNA was stained with 0.02 mg/mL propidium iodide together with 0.1 mg/mL of ribonuclease A (RNAse) A in D-PBS at 37° C. for 30 minutes. Cover slips were rinsed three times with sterile distilled water, air-dried and mounted on slides with SlowFade™ antifade solution (Molecular Probes, Eugene, Oreg.) and observed under the microscope using epifluorescence illumination for the presence of abnormal aster and microtubule bundle formations.

[4] = system: purified bovine brain tubulin; assay: Tubulin polymerization (optical density at 350 nm); type: biochemical; design: key to Purified tubulin polymerization by 10 μM / Purified tubulin polymerization at 10 μM: −: no effect; +/−: minimal or questionable effect; +: weak effect; ++: strong effect; +++: very strong effect equivalent to discodermolide; details: 10 μM compound, 1 mg/mL tubulin; for Purified tubulin polymerization, temperature at which polymerization commences: temperature ramp 4 to 35° C.; for Purified tubulin polymerization at 10 μM: Table 12
Experimental: (§3) Compounds were tested at 10 μM with 1 mg/mL tubulin. The temperature was varied during the course of the experiment as follows: the experiment was begun with an initial temperature of 4° C. and held for 1 minute; the temperature was then increased to 35° C. at a rate of 1° C./minute, held at 35° C. for 1 minute, decreased to 4° C. at a rate of 2° C/minute, and finally held at 4° C. for 14 minutes. The curves shown are for compounds: discodermolide (I); 2-desmethyldiscodermolide (II); 19-desaminocarbonyldiscodermolide (III); 2-epidiscodermolide (IV); and 3-deoxy-2A-discodermolide (VI).
as §3, with “C./minute,” for “C/minute,”, “for” for “for compounds:”, “8,21,23-hexahydrodiscodermolide (XII)” for “2-desmethyldiscodermolide (II); 19-desaminocarbonyldiscodermolide (III); 2-epidiscodermolide (IV);”, “7-deoxy-8,21,23-hexahydrodiscodermolide (XIII).” for “3-deoxy-2A-discodermolide (VI).”
Polymerization of purified bovine brain tubulin (Cytoskeleton Inc., Denver, Colo.) was followed by changes in the optical density of tubulin solutions at 350 nm in a Hitachi U-3010 spectrophotometer equipped with a SPR-10 electronic thermostatted cell holder. Stock solutions of tubulin were diluted on ice in G-PEM buffer (1 mM GTP, 80 mM PIPES, 1 mM EGTA, 0.5 mM magnesium chloride; pH 6.8) to a final concentration of 1 mg/mL. The instrument was zeroed on this solution at 4° C. Discodermolide, and its analogs, were then added to the tubulin solution to a final concentration of 10 μM, quickly mixed, and the absorbance monitored over a period of 61 minutes. Within this time the temperature of the thermoelectric cell holder was held at 4° C. for 1 minute, increased to 35° C. at a rate of 1° C./minute, reduced back to 4° C. at a rate of 2° C./minute, and held at 4° C. for an additional 14 minutes.

A549 human lung cells = assay: Cell cycle progression by flow cytometry; type: cell-based
Experimental: Cell cycle studies were initiated in order to pinpoint a specific phase within the cell cycle in which discodermolide analogs were exerting their antiproliferative effect. A549 human lung cells were used as cell cycle targets to compare the effects of discodermolide and discodermolide analogs on perturbation of the cell cycle. Cell cycle analyses were performed as follows: A549 cells were incubated at 37° C. in 5% CO2 in air in the presence or absence of varying concentrations of discodermolide or discodermolide analogs for 24 hr. Cells were harvested, fixed in ethanol, washed, and stained with 0.02 mg/mL of propidium iodide (P.I.) together with 0.1 mg/mL of RNAse A. Stained preparations were analyzed on a Coulter EPICS ELITE flow cytometer with 488 nm excitation. Fluorescence measurements and resulting DNA histograms were collected from at least 10,000 P.I. stained cells at an emission wavelength of 690 nm. Raw histogram data was further analyzed using a cell cycle analysis program (Multicycle, Phoenix Flow Systems).

[5] = 48-h exposure, value in parentheses
[6] = 72 hours exposure, value in parentheses

Compound	IC50 P388 cells ([1]; 48-h exposure) [ng/mL]	IC50 [1, 5] [nM]	IC50 A549 cells ([2]; 72 hours exposure) [ng/mL]	IC50 [2, 6] [nM]	Microtubule bundling in A549 cells ([3]; Table 12)	Purified tubulin polymerization, temperature at which polymerization commences [4]	Purified tubulin polymerization at 10 μM ([4]; subjective rating)	other results
C=CC=CC(C)C(OC(N)=O)C(C)C(O)C(C)CC(C)=CC(C)C(O)C(C)C=CC(O)CC1OC(=O)C(C)=CC1C (stereo not drawn) [3-Deoxy-2Δ-discodermolide (VI), 3-deoxy-2Δ-discodermolide]	20	33.6	12.5	21.7	+++	21 °C	+	
C=CC=CC(C)C(OC(N)=O)C(C)C(OC(C)=O)C(C)CC(C)=CC(C)C(O)C(C)C=CC(O)CC1OC(=O)C(C)=CC1C (stereo not drawn) [3-deoxy-2Δ-discodermolide-17-acetate]	>5000	> 8100	>5000	> 8100	−		−	
C=CC=CC(C)C(OC(N)=O)C(C)C(O)C(C)CC(C)=CC(C)C(OC(C)=O)C(C)C=CC(O)CC1OC(=O)C(C)=CC1C (stereo not drawn) [3-Deoxy-2Δ-discodermolide-11-acetate (X), 3-deoxy-2Δ-discodermolide-11-acetate]	320	519	1930	3130	−		−	
Methyldiscodermolate [Methyldiscodermolate (V)]	40	65.8	45	74		(12° C.)		Microtubule bundling in A549 cells ([3]; Table 11): +
C=C/C=C\[C@H](C)[C@H](OC(N)=O)[C@@H](C)[C@H](O)[C@@H](C)C/C(C)=C\[C@H](C)[C@@H](O)[C@@H](C)/C=C\[C@@H](O)C[C@@H]1OC(=O)[C@H](C)[C@@H](O)[C@H]1C [Discodermolide (I), discodermolide]						4 °C		IC50 ([1]; Mus musculus, P388, 48-h exposure): 0.021 µg/mL; IC50 ([1]; Mus musculus, P388, 48-h exposure, value in parentheses): 35 nM; IC50 ([2]; Homo sapiens, A549, 72 hours exposure): 8 ng/mL; IC50 ([2]; Homo sapiens, A549, 72 hours exposure, value in parentheses): 13.5 nM; Microtubule bundling in A549 cells ([3]; Table 11): +++; Purified tubulin polymerization by 10 μM ([4]; subjective rating, Table 11): +++
C=CC=CC(C)C(OC(N)=O)C(C)C(OC(C)=O)C(C)CC(C)=CC(C)C(OC(C)=O)C(C)C=CC(O)CC1OC(=O)C(C)=CC1C (stereo not drawn) [3-deoxy-2Δ-discodermolide-11,17-diacetate]	>5000	> 7590	>5000	> 7590	−		−	
C=CC=CC(C)C(OC(N)=O)C(C)C(OC(C)=O)C(C)CC(C)=CC(C)C(OC(C)=O)C(C)C=CC(CC1OC(=O)C(C)=CC1C)OC(C)=O (stereo not drawn) [3-deoxy-2Δ-discodermolide-7,11,17-triacetate]	4960	7080	>5000	> 7130	−		−	
C=CC=CC(C)C(OC(N)=O)C(C)C(O)C(C)CC(C)=CC(C)C(O)C(C)C=CC(CC1OC(=O)C(C)=CC1C)OC(=O)CCC(=O)O (stereo not drawn) [3-deoxy-2Δ-discodermolide-7-succinate]	>5000	> 7410			−			Cell cycle effects (A549 human lung cells; 10 nM): indistinguishable from the untreated (control) cells; Cell cycle effects (100 nM) (A549 human lung cells; 100 nM, 24 hr, A549): indistinguishable from the untreated (control) cells; Cell cycle effects (A549 human lung cells; 1000 nM): indistinguishable from the untreated (control) cells; Cell cycle effects (A549 human lung cells; 3000 nM (highest concentration tested)): no cell cycle effects were noted; also recorded: slight induction of apoptosis and a general necrosis; Microtubule bundling observation ([3]; 10 nM): indistinguishable from that of the untreated (control) cells; Microtubule bundling observation ([3]; 100 nM): indistinguishable from that of the untreated (control) cells; Microtubule bundling observation ([3]; 1000 nM): no bundling
